# Assay: Phase 1 study: safety and tolerability
# Type: in vivo
# Experimental: The maximum tolerated dose (MTD) of DZD1516 was defined based on safety data and the Bayesian optimal interval (BOIN) design (Additional file 1). The definition of DLT is provided in Additional file 1.
# The AE grading was assessed according to the NCI-Common Terminology Criteria for Adverse Events (CTCAE) (version 5.0) and was monitored until 28 days after the last dose.
# Eligible patients received single oral dosing of DZD1516 on Cycle 0 Day 1 (C0D1), followed by a 7-day washout. Twice daily oral dosing (bid) of DZD1516 was commenced from C1D1 in a continuous 21-day cycle until disease progression, unacceptable toxicity, or withdrawal of consent. All doses were taken under fed conditions (within 30 minutes after a meal).
# Planned dosing consisted of 25, 50, 100, 200, 300, and 400 mg. Each dose escalation cohort will comprise a minimum of three and a maximum of six evaluable patients (except only one patient in the starting dose cohort). The maximum tolerated dose of DZD1516 was defined according to safety data and the Bayesian optimal interval (BOIN) design. Dose escalation/de-escalation rule with target toxicity rate for the MTD is 0.30 with interval of (0.20, 0.33).
# DLTs were any adverse event (AE) not clearly attributable to the patient’s disease, including ≥ grade 4 hematological toxicities present for ≥ 4 days, grade 3 thrombocytopenia with bleeding, or grade 4 thrombocytopenia lasting for > 5 days, ≥ grade 3 non-hematological toxicities that is dose-limiting in the judgment of the investigators. Any other toxicity that is greater than that at baseline, is clinically significant or unacceptable, and is judged to be a DLT by the SRC. Exceptions included alopecia of any grade and isolated grade 3 laboratory change without clinical sequelae or clinical significance.
# Safety evaluations were conducted at screening, on Day 1, 8, and 15 of Cycle 1, on Day 1 of each subsequent treatment cycle, at the end-of-treatment visit, and clinically indicated. Safety assessments included clinical laboratory measurements (hematology, chemistry, coagulation, and urinalysis), electrocardiogram (ECG), Echocardiogram/MUGA scan, ECOG performance status, vital signs, and physical examinations.
compound,measurement,setting,value
COc1cc(O[C@H]2CCN(C)CC2(F)F)c2c(Nc3ccc(Oc4ccn5ncnc5c4)c(C)c3)ncnc2c1 [DZD1516],"Headache, ≥ Grade 3",200 mg (N = 5),0 (0.0) n (%)
same,"Hemoglobin decreased, Any Grade",200 mg (N = 5),3 (60.0) n (%)
same,"Hemoglobin decreased, ≥ Grade 3",200 mg (N = 5),0 (0.0) n (%)
same,"Investigations, Any Grade",200 mg (N = 5),4 (80.0) n (%)
same,"Investigations, ≥ Grade 3",200 mg (N = 5),1 (20.0) n (%)
same,"Lipase increased, Any Grade",200 mg (N = 5),1 (20.0) n (%)
same,"Lipase increased, ≥ Grade 3",200 mg (N = 5),0 (0.0) n (%)
same,"Malaise, Any Grade",200 mg (N = 5),1 (20.0) n (%)
same,"Malaise, ≥ Grade 3",200 mg (N = 5),0 (0.0) n (%)
same,"Metabolism and nutrition disorders, Any Grade",200 mg (N = 5),3 (60.0) n (%)
same,"Metabolism and nutrition disorders, ≥ Grade 3",200 mg (N = 5),0 (0.0) n (%)
same,"Musculoskeletal and connective tissue disorders, Any Grade",200 mg (N = 5),0 (0.0) n (%)
same,"Musculoskeletal and connective tissue disorders, ≥ Grade 3",200 mg (N = 5),0 (0.0) n (%)
same,"Nausea, Any Grade",200 mg (N = 5),1 (20.0) n (%)
same,"Nausea, ≥ Grade 3",200 mg (N = 5),0 (0.0) n (%)
same,"Nervous system disorders, Any Grade",200 mg (N = 5),2 (40.0) n (%)
same,"Nervous system disorders, ≥ Grade 3",200 mg (N = 5),0 (0.0) n (%)
same,"Participants with any TEAE, Any Grade",200 mg (N = 5),5 (100.0) n (%)
same,"Participants with any TEAE, ≥ Grade 3",200 mg (N = 5),1 (20.0) n (%)
same,"Platelet count decreased, Any Grade",200 mg (N = 5),1 (20.0) n (%)
same,"Platelet count decreased, ≥ Grade 3",200 mg (N = 5),0 (0.0) n (%)
same,"Proteinuria, Any Grade",200 mg (N = 5),2 (40.0) n (%)
same,"Proteinuria, ≥ Grade 3",200 mg (N = 5),0 (0.0) n (%)
same,"Renal and urinary disorders, Any Grade",200 mg (N = 5),2 (40.0) n (%)
same,"Renal and urinary disorders, ≥ Grade 3",200 mg (N = 5),0 (0.0) n (%)
same,Subjects with any TEAE,200 mg (N = 5),5 (100.0) n (%)
same,Subjects with any drug-related TEAE,200 mg (N = 5),5 (100.0) n (%)
same,"Vomiting, Any Grade",200 mg (N = 5),3 (60.0) n (%)
same,"Vomiting, ≥ Grade 3",200 mg (N = 5),0 (0.0) n (%)
same,"White blood cell count decreased, Any Grade",200 mg (N = 5),0 (0.0) n (%)
same,"White blood cell count decreased, ≥ Grade 3",200 mg (N = 5),0 (0.0) n (%)
same,"Alanine aminotransferase increased, Any Grade",250 mg (N = 5),1 (20.0) n (%)
same,"Alanine aminotransferase increased, ≥ Grade 3",250 mg (N = 5),0 (0.0) n (%)
same,"Anemia, Any Grade",250 mg (N = 5),1 (20.0) n (%)
same,"Anemia, ≥ Grade 3",250 mg (N = 5),0 (0.0) n (%)
same,Any TEAE: Grade 3,250 mg (N = 5),1 (20.0) n (%)
same,Any TEAE: Leading to death,250 mg (N = 5),0 (0.0) n (%)
same,Any TEAE: Leading to dose reduction,250 mg (N = 5),0 (0.0) n (%)
same,Any TEAE: Leading to treatment discontinuation,250 mg (N = 5),0 (0.0) n (%)
same,Any TEAE: Leading to treatment interruption,250 mg (N = 5),1 (20.0) n (%)
same,Any TEAE: SAE,250 mg (N = 5),1 (20.0) n (%)
same,"Aspartate aminotransferase increased, Any Grade",250 mg (N = 5),2 (40.0) n (%)
same,"Aspartate aminotransferase increased, ≥ Grade 3",250 mg (N = 5),0 (0.0) n (%)
same,"Blood and lymphatic system disorders, Any Grade",250 mg (N = 5),1 (20.0) n (%)
same,"Blood and lymphatic system disorders, ≥ Grade 3",250 mg (N = 5),0 (0.0) n (%)
same,"Blood bilirubin increased, Any Grade",250 mg (N = 5),1 (20.0) n (%)
same,"Blood bilirubin increased, ≥ Grade 3",250 mg (N = 5),0 (0.0) n (%)
same,"Cardiac disorders, Any Grade",250 mg (N = 5),2 (40.0) n (%)
same,"Cardiac disorders, ≥ Grade 3",250 mg (N = 5),0 (0.0) n (%)
same,"Constipation, Any Grade",250 mg (N = 5),0 (0.0) n (%)
same,"Constipation, ≥ Grade 3",250 mg (N = 5),0 (0.0) n (%)
same,"Decreased appetite, Any Grade",250 mg (N = 5),0 (0.0) n (%)
same,"Decreased appetite, ≥ Grade 3",250 mg (N = 5),0 (0.0) n (%)
same,"Dizziness, Any Grade",250 mg (N = 5),1 (20.0) n (%)
same,"Dizziness, ≥ Grade 3",250 mg (N = 5),0 (0.0) n (%)
same,Drug-related TEAE: Grade 3,250 mg (N = 5),0 (0.0) n (%)
same,Drug-related TEAE: Leading to death,250 mg (N = 5),0 (0.0) n (%)
same,Drug-related TEAE: Leading to dose reduction,250 mg (N = 5),0 (0.0) n (%)
same,Drug-related TEAE: Leading to treatment discontinuation,250 mg (N = 5),0 (0.0) n (%)
same,Drug-related TEAE: Leading to treatment interruption,250 mg (N = 5),0 (0.0) n (%)
same,Drug-related TEAE: SAE,250 mg (N = 5),0 (0.0) n (%)
same,"Fatigue, Any Grade",250 mg (N = 5),1 (20.0) n (%)
same,"Fatigue, ≥ Grade 3",250 mg (N = 5),0 (0.0) n (%)
same,"Gastrointestinal disorders, Any Grade",250 mg (N = 5),1 (20.0) n (%)
same,"Gastrointestinal disorders, ≥ Grade 3",250 mg (N = 5),1 (20.0) n (%)
same,"General disorders and administration site conditions, Any Grade",250 mg (N = 5),2 (40.0) n (%)
same,"General disorders and administration site conditions, ≥ Grade 3",250 mg (N = 5),0 (0.0) n (%)
same,"Headache, Any Grade",250 mg (N = 5),2 (40.0) n (%)
same,"Headache, ≥ Grade 3",250 mg (N = 5),0 (0.0) n (%)
same,"Hemoglobin decreased, Any Grade",250 mg (N = 5),2 (40.0) n (%)
same,"Hemoglobin decreased, ≥ Grade 3",250 mg (N = 5),0 (0.0) n (%)
same,"Investigations, Any Grade",250 mg (N = 5),2 (40.0) n (%)
same,"Investigations, ≥ Grade 3",250 mg (N = 5),0 (0.0) n (%)
same,"Lipase increased, Any Grade",250 mg (N = 5),0 (0.0) n (%)
same,"Lipase increased, ≥ Grade 3",250 mg (N = 5),0 (0.0) n (%)
same,"Malaise, Any Grade",250 mg (N = 5),1 (20.0) n (%)
same,"Malaise, ≥ Grade 3",250 mg (N = 5),0 (0.0) n (%)
same,"Metabolism and nutrition disorders, Any Grade",250 mg (N = 5),1 (20.0) n (%)
same,"Metabolism and nutrition disorders, ≥ Grade 3",250 mg (N = 5),0 (0.0) n (%)
same,"Musculoskeletal and connective tissue disorders, Any Grade",250 mg (N = 5),3 (60.0) n (%)
same,"Musculoskeletal and connective tissue disorders, ≥ Grade 3",250 mg (N = 5),1 (20.0) n (%)
same,"Nausea, Any Grade",250 mg (N = 5),1 (20.0) n (%)
same,"Nausea, ≥ Grade 3",250 mg (N = 5),0 (0.0) n (%)
same,"Nervous system disorders, Any Grade",250 mg (N = 5),4 (80.0) n (%)
same,"Nervous system disorders, ≥ Grade 3",250 mg (N = 5),0 (0.0) n (%)
same,"Participants with any TEAE, Any Grade",250 mg (N = 5),5 (100.0) n (%)
same,"Participants with any TEAE, ≥ Grade 3",250 mg (N = 5),1 (20.0) n (%)
same,"Platelet count decreased, Any Grade",250 mg (N = 5),0 (0.0) n (%)
same,"Platelet count decreased, ≥ Grade 3",250 mg (N = 5),0 (0.0) n (%)
same,"Proteinuria, Any Grade",250 mg (N = 5),0 (0.0) n (%)
same,"Proteinuria, ≥ Grade 3",250 mg (N = 5),0 (0.0) n (%)
same,"Renal and urinary disorders, Any Grade",250 mg (N = 5),0 (0.0) n (%)
same,"Renal and urinary disorders, ≥ Grade 3",250 mg (N = 5),0 (0.0) n (%)
same,Subjects with any TEAE,250 mg (N = 5),5 (100.0) n (%)
same,Subjects with any drug-related TEAE,250 mg (N = 5),4 (80.0) n (%)
same,"Vomiting, Any Grade",250 mg (N = 5),0 (0.0) n (%)
same,"Vomiting, ≥ Grade 3",250 mg (N = 5),0 (0.0) n (%)
same,"White blood cell count decreased, Any Grade",250 mg (N = 5),2 (40.0) n (%)
same,"White blood cell count decreased, ≥ Grade 3",250 mg (N = 5),0 (0.0) n (%)
same,dose-limiting toxicities (DLTs),250 mg cohort,none of the patients in the 250 mg cohort experiencing DLTs
same,"Alanine aminotransferase increased, Any Grade",300 mg (N = 4),1 (25.0) n (%)
same,"Alanine aminotransferase increased, ≥ Grade 3",300 mg (N = 4),0 (0.0) n (%)
same,"Anemia, Any Grade",300 mg (N = 4),0 (0.0) n (%)
same,"Anemia, ≥ Grade 3",300 mg (N = 4),0 (0.0) n (%)
same,Any TEAE: Grade 3,300 mg (N = 4),3 (75.0) n (%)
same,Any TEAE: Leading to death,300 mg (N = 4),0 (0.0) n (%)
same,Any TEAE: Leading to dose reduction,300 mg (N = 4),3 (75.0) n (%)
same,Any TEAE: Leading to treatment discontinuation,300 mg (N = 4),1 (25.0) n (%)
same,Any TEAE: Leading to treatment interruption,300 mg (N = 4),3 (75.0) n (%)
same,Any TEAE: SAE,300 mg (N = 4),0 (0.0) n (%)
same,"Aspartate aminotransferase increased, Any Grade",300 mg (N = 4),1 (25.0) n (%)
same,"Aspartate aminotransferase increased, ≥ Grade 3",300 mg (N = 4),0 (0.0) n (%)
same,"Blood and lymphatic system disorders, Any Grade",300 mg (N = 4),0 (0.0) n (%)
same,"Blood and lymphatic system disorders, ≥ Grade 3",300 mg (N = 4),0 (0.0) n (%)
same,"Blood bilirubin increased, Any Grade",300 mg (N = 4),0 (0.0) n (%)
same,"Blood bilirubin increased, ≥ Grade 3",300 mg (N = 4),0 (0.0) n (%)
same,"Cardiac disorders, Any Grade",300 mg (N = 4),0 (0.0) n (%)
same,"Cardiac disorders, ≥ Grade 3",300 mg (N = 4),0 (0.0) n (%)
same,"Constipation, Any Grade",300 mg (N = 4),1 (25.0) n (%)
same,"Constipation, ≥ Grade 3",300 mg (N = 4),0 (0.0) n (%)
same,"Decreased appetite, Any Grade",300 mg (N = 4),3 (75.0) n (%)
